Where two headings read alike, the source gives them in different places. Values belong to the compound of their own block, whether it stands above or below them.
How the values were obtained:
LATS1 = molecular target: T1, LATS1 (Homo sapiens, UniProt O95835); experiment: in vitro Lats kinase assay (enzymological assay); type: biochemical; conditions: for true inhibitory activities: implied, Lats concentration 555 pM in the assay, affinities at or below lower limit of accurate quantification
T1 sequence (O95835 589-1130 limits assumed): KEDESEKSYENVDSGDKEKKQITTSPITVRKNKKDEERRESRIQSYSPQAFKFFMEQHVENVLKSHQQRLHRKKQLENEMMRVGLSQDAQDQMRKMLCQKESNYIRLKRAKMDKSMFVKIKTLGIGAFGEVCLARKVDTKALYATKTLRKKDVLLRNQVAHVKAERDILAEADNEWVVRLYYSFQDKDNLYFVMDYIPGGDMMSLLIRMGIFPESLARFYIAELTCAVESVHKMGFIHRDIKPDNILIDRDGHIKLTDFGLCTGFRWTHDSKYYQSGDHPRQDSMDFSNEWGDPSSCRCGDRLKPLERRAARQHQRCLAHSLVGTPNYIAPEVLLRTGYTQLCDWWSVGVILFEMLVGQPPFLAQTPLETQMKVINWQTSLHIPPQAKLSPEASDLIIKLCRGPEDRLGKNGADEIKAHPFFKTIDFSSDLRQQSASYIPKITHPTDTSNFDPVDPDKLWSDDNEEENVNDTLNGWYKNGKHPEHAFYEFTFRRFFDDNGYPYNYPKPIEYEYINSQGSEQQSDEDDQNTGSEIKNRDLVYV

[1] = tested on: Yap phosphorylation in HEK293A cells; experiment: cellular assay of Yap phosphorylation (ratio of pYap to tYap in homogenates from treated cells); type: cell-based; conditions: HEK293-A
[2] = mouse liver microsome stability; type: in vitro ADME; set-up: unit not given here
Excerpt: (§1) Fig. 1. […] HLM, human liver microsome; MLM, mouse liver microsome.

[3] = human liver microsome stability; type: in vitro ADME; set-up: unit not given here
Excerpt: as §1

Yap target genes = experiment: RNA sequencing of livers and hearts after injection; type: in vivo, mouse
cardiomyocytes = experiment: EdU incorporation in hearts of mice after right-ventricle cryolesion; type: in vivo, mouse
Excerpt: Cardiomyocytes ordinarily display little or no proliferation in mature mammals; instead, cardiac lesions in mice evoke scarring ([18]). To ascertain whether TDI-011536 restores a capacity for proliferation, we therefore examined the effect of systemic administration of the compound on damaged hearts in mice. After optimizing the surgical approach and establishing an appropriate dosage regime, we conducted eight experiments on male 8-week-old mice. In each instance, we used a metal probe cooled in liquid nitrogen to create a small cryolesion on the right ventricle ([18]).
In 33 images from 13 sections from the hearts of the two animals treated with TDI-011536 for 3 d, the average density of EdU labeling was 17.0 ± 3.5 μm^−2 (mean ± SD; SI Appendix, Table S3). By contrast, 28 images from 12 sections from controls yielded a labeling density of 5.6 ± 2.1 μm^−2 (mean ± SD; SI Appendix, Table S4). Because the values for the two control samples were not statistically different, those data were combined. […] Combining the experimental results as well yielded an overall significance of P < 10^−21 (SI Appendix, Fig. S5). […]
Cryolesioning of the murine right ventricle
Cardiac lesions were produced by a variant of a published method (6). Twenty minutes before surgery, an adult Swiss Webster mouse (Charles River Laboratories) four or eight weeks of age and of either sex was given buprenorphine subcutaneously at a dosage of 100 µg/kg for analgesia. The animal was anesthetized with 100 mg/kg of ketamine and 5 mg/kg of xylazine administered intraperitoneally in sterile water. The animal's mid-ventrum was shaved, chemically depilitated, and sterilized with a povidine-iodine swab. The area of the skin incision was infiltrated intradermally with 1 mg/kg of bupivacaine. Subsequent procedures were conducted beneath a surgical microscope and under sterile conditions in a HEPA-filtered, […]
With the animal supine on a thermostatted heating pad at 40 °C, an oblique, 15 mm-long incision was made from the xiphoid process parallel to the left lower costal margin and about 3 mm caudal to it. After the abdominal musculature and peritoneum had been transected with scissors in the same pattern, a miniature retractor was introduced to separate the two […]
sides of the incision. This approach exposed the upper margin of the liver and provided a view of the beating heart and the base of the left lung through the transparent diaphragm.
A cryolesion of the right ventricle was created with a round aluminum rod of mass 1.44 g secured to a plastic handle. A total of 76 mm in length, the rod was 3.2 mm in diameter over a distance of 59 mm at the base and 2.15 mm in diameter over the 17 mm at the tip. […]

[4] = tolerability of intraperitoneal dosing in mice
Excerpt: Assays of Lats kinase inhibition
assigned to treated and control groups.
Measurement of in vivo Lats inhibition

[5] = tested on: Müller glia in human retinal organoids; experiment: proliferation of Müller glia in human retinal organoids (EdU/Sox9); type: cell-based
Excerpt: (§2) Fig. 2. […] Each sample includes five organoids; β-actin serves as a loading control.
(§3) The supernatants were filtered and the lysates
(§4) The proteins were transferred to a PVDF
(§5) The extent of proliferation was […]

human retinal organoids = experiment: apoptosis in human retinal organoids (activated caspase 3 labeling); conditions: 10 μM TRULI or 3 μM TDI-011536
Excerpt: Control experiments relating to gene expression in retinal organoids. (A) Although
increased b-actin concentrations in mitotically active cells.
extensive proliferation of Müller cells marked with Sox2 (green), as signaled by labeling with
arrowheads). DAPI (blue) marks all the nuclei.

[6] = tested on: Yap phosphorylation in human retinal organoids; experiment: Yap phosphorylation in human retinal organoids (immunoblot pYap/tYap); type: cell-based; conditions: 3 μM, 24 h, vs DMSO controls
Excerpt: as §2, §3, §4, §5

[7] = tested on: Yap phosphorylated at residue S127 (pYap); experiment: in vivo Lats inhibition: immunoblot of pYap and tYap in heart, liver and skin after intraperitoneal injection
Protocol: The compound was dissolved in Kolliphor HS 15, a vehicle that was also injected into control animals.
Engagement of target organs in vivo. (A) Immunoblots portray the amounts of Yap phosphorylated at residue S127 (pYap) and the total amounts of Yap (tYap) in the liver, heart, and skin. […] Glyceraldehyde 3-phosphate dehydrogenase (Gapdh) is included in each instance as a loading control.
We compared the original 200 mg/kg dose to injections of 100 mg/kg and 50 mg/kg.
procedures involved Swiss Webster mice (Charles River Laboratories) of both sexes and were conducted with the approval of Rockefeller University's Institutional Animal Care and Use Committee. Within each experiment, animals were age- and sex-matched and were randomly assigned to treated and control groups.
each day of treatment, an animal received a single intraperitoneal injection of the mixture to
In the principal experiment with a dosage of 100 mg/kg, or 20 mL/kg, a typical animal of mass 30 g received an injection of 0.6 mL of
Fifty milligrams of heart, liver, or skin tissue was lysed on ice in radioimmunoprecipitation-assay
After remaining on ice for 30 min, the samples were sonicated at low power for 2 min with 10 s exposures separated by 10 s interruptions, then
The supernatants were filtered and the lysates were immediately subjected to electrophoresis or stored at -80 °C.
A standard immunoblotting protocol was used. After lysates had been prepared, 10 mg
gradient bis-tris gel (NP0322, Thermo Fisher). The proteins were transferred to a PVDF
(ab8245, Abcam), which were reconstituted at a dilution of 1:1000 in blocking solution. After a
Secondary antibodies conjugated to horseradish peroxidase (W401B and W402B, Promega) were applied at a dilution of 1:10,000 in the same solution for one hour at room temperature
were acquired with an iBright FL1000 system (Invitrogen).

[8] = tested on: supporting cells of the internal ear; set-up: method as in PMID 34035288; conditions: in vitro; cited from earlier work
[9] = heart, 4 h after 200 mg/kg, ± SEM, three measurements
[10] = liver, 4 h after 200 mg/kg, ± SEM, three measurements

IC50 (LATS1): 224 nM
Structure (SMILES): Cc1cn(Cc2ccccc2)/c(=N/C(=O)c2c[nH]c3ncccc23)s1 [TDI-011214]
EC50 ([1]; read-out: pYAP EC50): 3140 nM

MLM activity [2]: 358 | IC50 (LATS1): 0.96 nM | true inhibitory activities (LATS1): lower than 1 nM | HLM activity [3]: 224
Structure (SMILES): Cc1cs/c(=N\C(=O)c2c[nH]c3ncccc23)n1Cc1ccccc1 [TDI-011241]
EC50 ([1]; read-out: pYAP EC50): 107 nM

Structure (SMILES): O=C(/N=c1\scc(CO)n1Cc1ccccc1)c1c[nH]c2ncccc12 [TDI-011536]
Amotl2 expression, Heart, Treated (Yap target genes; [9]): 11.53 ± 0.13 rLog | Ccn1 expression, Heart, Treated (Yap target genes; [9]): 11.46 ± 0.29 rLog | Ccn2 expression, Heart, Treated (Yap target genes; [9]): 14.02 ± 0.14 rLog | Myc expression, Heart, Treated (Yap target genes; [9]): 8.15 ± 0.10 rLog | gene set-enrichment of genes characteristically activated upon Yap expression (Yap target genes; liver and heart, 4 h after 200 mg/kg): significant enrichment | damage in the organs examined (gene set-enrichment for inflammation and apoptosis terms) (Yap target genes; liver and heart, 4 h treatment in vivo, 200 mg/kg): did not elicit significant damage | Amotl2 expression, Liver, Treated (Yap target genes; [10]): 10.21 ± 0.07 rLog | Ccn1 expression, Liver, Treated (Yap target genes; [10]): 9.50 ± 0.27 rLog | Ccn2 expression, Liver, Treated (Yap target genes; [10]): 10.55 ± 0.33 rLog | Myc expression, Liver, Treated (Yap target genes; [10]): 10.67 ± 0.23 rLog | EdU-labeled cardiomyocytes at high magnification (cardiomyocytes; 100 mg/kg i.p. two or three days after cryolesion): numerous labeled cardiomyocytes | density of EdU-labeled cells, Specimen 1 (mean ± SD) (cardiomyocytes; 14 images, treated animal): 15.2 ± 3.0 mm-2 | density of EdU-labeled cells, Specimen 2 (mean ± SD) (cardiomyocytes; 19 images, treated animal): 18.3 ± 3.4 mm-2 | average density of EdU labeling (mean ± SD) (cardiomyocytes; two animals treated for 3 d, 100 mg/kg i.p., 33 images from 13 sections, controls 5.6 ± 2.1): 17 ± 3.5 mm^-2 | MLM activity [2]: 72 | survival and ill effects ([4]; both, Swiss Webster, mouse, in vivo, ip, 100 mg/kg, 2 wk): survival of all the mice for 2 wk with no apparent ill effects | toxicity of systemic administration in young mice ([4]; young mice, intraperitoneal injection): lethality related to intraperitoneal injection | increase in the number of cells doubly positive for EdU and Sox9 ([5]; 3 μM, 5 d treatment): tenfold | apoptosis by labeling for activated caspase 3 (human retinal organoids): little apoptosis | reduction in Yap phosphorylation (ratio of pYap to tYap) [6]: ~80% | IC50 (LATS1): 0.76 nM | true inhibitory activities (LATS1): lower than 1 nM | EC50 ([1]; read-out: EC50 (mean ± SEM) for pYap/tYap): 40.8 ± 4.5 nM | EC50 ([1]; HEK293A cells, value printed in Fig. 1A, read-out: pYAP EC50): 10 nM | pYap in liver, heart and skin ([7]; 50 mg/kg, after 4 h): no longer diminished pYap significantly in any organ | dephosphorylation of Yap in the liver and heart ([7]; 100 mg/kg, through 4 h): maintained the dephosphorylation of Yap | dephosphorylation of Yap in the skin ([7]; 100 mg/kg, through 4 h): failed to do so | pYap levels ([7]; 200 mg/kg intraperitoneal, by eight hours): returned to their baseline levels | pYap relative to total Yap in heart, liver and skin ([7]; 200 mg/kg intraperitoneal, two or four hours after injection): remarkable reduction | pYap in liver, heart and skin ([7]; 200, 100 and 50 mg/kg, within 2 h of injection): profound reductions of pYap | duration of Lats inhibition in the liver, heart, and skin ([7]; injection of 200 mg/kg): over 4 h | HLM activity [3]: 36

MLM activity [2]: 303 | HLM activity [3]: 200
Structure (SMILES): O=C(/N=c1\sccn1Cc1ccccc1)c1c[nH]c2ncccc12 [TRULI, reference compound]
increase in the number of Sox9-positive Müller glia that incorporated EdU ([5]; 10 μM, 5-d treatment): almost fivefold | apoptosis by labeling for activated caspase 3 (human retinal organoids): little apoptosis | mitosis in supporting cells of the organ of Corti [8]: fails to elicit such a response | mitosis in supporting cells of the utricle [8]: robust mitosis | EC50 ([1]; read-out: pYAP EC50): 586 nM
